Experiments:
[1] = tested on: blood-brain barrier (BBB)
From the text: EB dye is used as the non-BBB permeable substance. […] Photos of the perfused brain tissues are taken for observations and comparisons.
EB dye is used as a non-BBB-permeable substance. […] Photographs of the perfused brain tissues harvested at different time points are taken for observation and comparison, as shown in FIG. 9 of the drawings.
As a negative control, photographs of perfused brain tissues were taken from the following animals: the normal untreated mice; the mice were intravenously administered 2% EB; and the mice received the same dose of 0.3% EA mixed with a 2% EB solution intravenously as applied via intracardiac injection.

[2] = tested on: blood-brain barrier (BBB); assay: Comparison of intracardiac EA and NEO100 mediated BBB opening, EB dye (Comparative Experiment 19, Experiment 20); assay type: in vivo, mice; settings: mice
Experimental: Intracardiac injected various concentrations of EA (at 25%, 20%, 3%, 0.3%, and 0.1%, 0.03%, 0.01%) and NEO100 (at 25%, 20%, 3%, 0.3%, and 0.1%, 0.03%, 0.01%) are used on mice to test their effects on BBB disruption and evaluated by the observation of extravasated EB dye in the brain tissues. […] Photographs of the perfused brain tissues from the experimental mice treated with […] EA and NEO100 are taken for observation and comparison.
The same procedure as experiment 19 was performed with IA 0.3% NEO100 with 2% EB dye solution.

[3] = tested on: blood-brain barrier (BBB); assay: IA ethyl alcohol, NEO100 or mannitol mediated BBB disruption, extravasated EB dye in perfused mouse brain (Experiments 1-3); assay type: in vivo, mice; settings: for EB dye / EB dye penetration level / Patchy, or punctate pattern of EB dye: perfused mouse brain
Experimental: The method of IA and IC injection is similar to the IV push in the clinic, which comprises essentially the steps of: • pushing the injection composition at a particular infusion flow rate immediately after the placement of the IA catheter into the internal carotid artery (ICA) or the insertion of the injection needle into the left ventricle via the ultrasound-guided intracardiac (IC) puncture at room temperature.
When performing the IA and IC injections, the infusion flow rate is about 5-7 μl/second (0.3-0.45 ml/min), the infusion volume is about […] of the body weight (at 1 μl/g, volume/weight ratio), and USP purified water or sodium chloride is used to reconstitute varied EA solutions at room temperature.
Intracardiac injection of NEO100 or EA can be carried out through the procedure of ultrasound-guided intracardiac (IC) injection. […] The mouse is anesthetized in an induction chamber using 2-3% isoflurane in 100% oxygen at a rate of 0.2-0.5 L/min. Fur over the thorax area is removed and the animal is placed in a stereotactic frame in supine position, securing the upper and lower limbs to avoid body movement. The ultrasound transducer is placed above the chest of the animal, and the injection syringe is anchored to a platform to avoid erratic needle movements. An electrocardiogram monitor is used to monitor heart function during the intracardiac injection.
EB dye is used as the non-BBB permeable substance.
Photographs of the perfused brain tissues of the experimental mice after treatment are taken.
Extravasated EB dye is used as the non-BBB permeable substance.

[4] = tested on: blood-brain barrier (BBB); assay: Microcatheter 3% EA-mediated delivery of CD3-positive CAR T cells, confocal imaging (Experiment 26); assay type: in vivo; settings: microcatheter 3% EA + 2×10^6 CAR T cells, normal rat
Experimental: Similarly, the efficacy of microcatheter placement and infusion of an optimal 3% EA-mediated delivery of CAR T cells is validated. The CAR T cells are human CD3 positive, which can be analyzed by immunohistochemistry staining using rabbit anti-human CD3 primary antibody and Alexa Fluor 647-labeled goat anti-rabbit IgG secondary antibody to detect CD3 expression on the surface of CAR T cells by confocal imaging, as shown in FIG. 19. […] The confocal imaging staining is performed to detect the spreading of CD3-positive CAR T cells. The blue color comes from the DAPI-stained nuclei. The red color is Alexa Fluor 647-labeled […], as only the human CAR T cells are CD3 positive.

brain tissues = settings: IA 0.3% ethyl alcohol vs normal untreated mouse
Experimental: Ultrathin sections of the brains previously processed with Pelco BioWave Pro (Pelco, Fresno, CA USA) are cut at 99 nm and collected on 200-mesh copper grids. The grids are post-stained in uranyl acetate (0.2%) and filtered for 15 min. Grids are further stained with lead citrate and filtered for 5 min. The Tecnai Spirit G2TEM (Nanoscience Initiative, Nicholas Terrace, New York, USA) with an installed Mega View camera is used to image the samples. The micrographs are illustrated in FIG. 5 of the drawings. The scale bar is 2 μm.

brain tumor = settings: IA ethyl alcohol + IA or IV Anti-PD-1, mice
From the text: The standard detailed protocol is followed. Primary antibodies used are FITC-conjugated Armenian hamster anti-mouse PD-1 (11-9985-82, ThermoFisher Scientific, San Diego, CA USA), and rat anti-mouse PD-1 (BE0146, Bio X Cell, West Lebanon, NH USA). The secondary antibody is ALEXA FLUOR® 647 goat anti-rabbit (ab150083, Abcam).

[5] = tested on: blood-brain barrier (BBB); settings: group B: 300 μl 3% EA infused in 5 seconds, room temperature
[6] = tested on: blood-brain barrier (BBB); settings: rats
From the text: In this experiment, the microcatheter is placed in the left internal carotid artery (ICA). The left internal carotid artery (ICA) leads to the left hemisphere of the brain. (That is, the selected intracerebral artery is the left internal carotid artery (ICA); and the target area is the left hemisphere of the brain.)
Evans blue (EB) dye is used as the non-BBB permeable substance.
To validate the limited, localized, and targeted BBB opening mediated by intra-arterial EA around the area supplied by the corresponding artery, a microcatheter is inserted from the CCA, proceeded along the ICA, positioned at the origin of the MCA, and infused with 300 μL of a 3% EA in a 2% EB dye solution. The effect of the compromised BBB can be determined by observing the penetration of the EB dye (doesn't pass through the BBB in normal physical condition).

[7] = cited from earlier work

CCO [ethyl alcohol]
extravasated EB dye in brain after intravenous EA ([1]; 0.3% EA mixed with 2% EB given intravenously (negative control route), mice): No extravasated EB dye in any parts of the brain | BBB opening at 0 min time point ([1]; IA 0.3% EA then IV 2% EB, euthanized immediately, mice): immediate, homogeneous, and highly efficient BBB opening | level of blue color observed in the brain as lagged time of EB administration increased ([1]; IA 0.3% ethyl alcohol, EB at 15, 60, 120, 240 min after, mice): decreased | interval window of the breached BBB ([1]; IA EA): about 2 hours | adverse effects ([1]; IA/intracardiac 0.3% EA, mice): occasional adverse effects, such as mild epilepsy, but no moderate to severe epilepsy and sudden death were observed | duration of transient BBB opening ([1]; iv, 0.25 h): ≤ 120 min | pattern of BBB opening, coronal section ([2]; IA 0.1% EA): homogenized BBB opening | dose response of BBB disruption ([2]; intracardiac 25%, 20%, 3%, 0.3%, 0.1%, 0.03%, 0.01%): dose-reverse response | spread of EB dye inside the brain tissues ([3]; IA EA at 0.3%, 1%, and 3%, mice, superior and sagittal views): homogenized, evenly spread EB dye inside the brain tissues is observed | EB dye ([3]; IA agent at 0.1%): Observed | EB dye penetration level ([3]; IA agent at 0.1%): Widely | Patchy, or punctate pattern of EB dye ([3]; IA agent at 0.1%): Not | EB dye ([3]; IA agent at 0.3%): Observed | EB dye penetration level ([3]; IA agent at 0.3%): Widely | Patchy, or punctate pattern of EB dye ([3]; IA agent at 0.3%): Not | EB dye ([3]; IA agent at 3%): Observed | EB dye penetration level ([3]; IA agent at 3%): Widely | Patchy, or punctate pattern of EB dye ([3]; IA agent at 3%): Not | EB dye ([3]; IA agent at 5%): Observed | EB dye penetration level ([3]; IA agent at 5%): Widely | Patchy, or punctate pattern of EB dye ([3]; IA agent at 5%): Not | delivery of CAR T cells into brain tissue [4]: can deliver BBB-impermeable CAR T cells into normal rat brain tissue | ultrastructure of brain tissues (TEM) (brain tissues): many open spaces | anti-PD-1 antibody brain tumor entry (brain tumor): can mediate checkpoint inhibitor anti-PD-1 antibody brain tumor entry | EB (induced BBB disruption) [5]: observed | extent of BBB opening (EB dye penetration) ([6]; 300 μL 3% EA in 2% EB, microcatheter at origin of MCA): site-specific BBB opening, which is limited to the area supplied by the MCA only | delivery of EB dye to target area ([6]; EA 0.1% to 0.5%, microcatheter in left ICA): can be used to deliver EB dye to the left hemisphere of the brain | solubility in water [7]: infinitely soluble (fully miscible)

— patent US12539281B2 (priority 2021, dated 2026)
